The values that follow are results of earlier work, collected in US20030157192A1, “Low temperature disinfectant/sterilant for medical devices and topical applications” (Healthpoint, Ltd., priority 2002, published 2003).

The conditions of data set [1]: room temperature; low pH.
The test system of another data set is mouse skin. As to conditions: tested on mouse skin.

Molecules are shown by their SMILES.

As to `OO` [6% hydrogen peroxide, hydrogen peroxide], in data set [1], the “minimum time required to pass the AOAC Sporicidal Test” value is not below 6 h. Take `CC(=O)OO` [Peracetic acid]: the tumor promotion result with mouse skin is “tumor-promoting agent”.
